Experimental data published in ChEMBL document CHEMBL1921737, “Utilizing G-quadruplex formation to target 8-oxoguanine in telomeric sequences” (Bioorg Med Chem Lett, 2011).
Active and inactive are the calls of the source. No cut-off for these calls is given here.

Tests used:
Format in all cases: nucleic-acid assay
Nucleic Acid [1] = experiment: Induction of telomeric [32P] G-quadruplex DNA 5'-d(GOxodGTTAGGGTTAGGGTTAGGGTTAGGG) adduct formation at 4 uM for 30 mins in presence of Na2IrCl6 by PAGE method
Nucleic Acid [2] = experiment: Binding affinity to telomeric G-quadruplex DNA 5'-d(AGGGTTAGGGTTAGGGTTAGGG) at 1 to 10 uM by CD titration method in presence of 100 mM of KCl
Nucleic Acid [3] = experiment: Binding affinity to telomeric G-quadruplex DNA 5'-d(GOxodGTTAGGGTTAGGGTTAGGGTTAGGG) at 1 to 10 uM by CD titration method in presence of 100 mM of KCl
Nucleic Acid [4] = experiment: Induction of telomeric [32P] G-quadruplex DNA 5'-d(AOxodGGTTAGGGTTAGGGTTAGGGTGTT) assessed as adducts decomposition half life at 4 uM for 30 mins in presence of Na2IrCl6 by PAGE method
Nucleic Acid [5] = experiment: Induction of telomeric [32P] Duplex DNA 5'-d(CGTTCAGAGCCGOxodGTTACGTCCTTCAT) 3'-d(CGAAGTCTGGCCAATGCAGGAAGTA) adduct formation at 4 uM for 30 mins in presence of Na2IrCl6 by PAGE method
Nucleic Acid [6] = experiment: Binding affinity to telomeric G-quadruplex DNA 5'-d(AOxodGGTTAGGGTTAGGGTTAGGGTGTT) at 1 to 10 uM by CD titration method in presence of 100 mM of KCl
Nucleic Acid [7] = experiment: Induction of telomeric [32P] G-quadruplex DNA 5'-d(AOxodGGTTAGGGTTAGGGTTAGGGTGTT) adduct formation at 4 uM for 30 mins in presence of Na2IrCl6 by PAGE method
Nucleic Acid [8] = experiment: Binding affinity to telomeric G-quadruplex DNA 5'-d(AGGGTTAGOxodGGTTAGGGTTAGGGTGTT) at 1 to 10 uM by CD titration method in presence of 100 mM of KCl
Nucleic Acid [9] = experiment: Induction of telomeric [32P] G-quadruplex DNA 5'-d(AGGGTTAGGGTTAOxodGGGGTTAGGGTGTT) adduct formation at 4 uM for 30 mins in presence of Na2IrCl6 by PAGE method
Nucleic Acid [10] = experiment: Binding affinity to telomeric G-quadruplex DNA 5'-d(AGGGTTAGGGTTAGGGTTAGGG) assessed as increase in melting temperature at 2 uM by UV thermal denaturation analysis
Nucleic Acid [11] = experiment: Binding affinity to telomeric G-quadruplex DNA 5'-d(AGGGTTAGGGTTAGGGTTAGGG) by UV titration method
Nucleic Acid [12] = experiment: Binding affinity to telomeric Duplex DNA 5'-d(CGTTCAGAGCCGOxodGTTACGTCCTTCAT) 3'-d(CGAAGTCTGGCCAATGCAGGAAGTA) at 1 to 10 uM by CD titration method in presence of 100 mM of KCl
Nucleic Acid [13] = experiment: Induction of telomeric [32P] G-quadruplex DNA 5'-d(GOxodGTTAGGGTTAGGGTTAGGGTTAGGG) assessed as adducts decomposition half life at 4 uM for 30 mins in presence of Na2IrCl6 by PAGE method
Nucleic Acid [14] = experiment: Induction of telomeric [32P] G-quadruplex DNA 5'-d(AGGGTTAGOxodGGTTAGGGTTAGGGTGTT) adduct formation at 4 uM for 30 mins in presence of Na2IrCl6 by PAGE method
Nucleic Acid [15] = experiment: Binding affinity to telomeric G-quadruplex DNA 5'[32P]-d(AGGGTTAGGGTTAOxodGGGGTTAGGGTGTT) at 1 to 10 uM by CD titration method in presence of 100 mM of KCl

Row | Activity (Nucleic Acid [1]) | Activity (Nucleic Acid [2]) | Activity (Nucleic Acid [3]) | T1/2 (Nucleic Acid [4]) [h] | Activity (Nucleic Acid [5]) | Activity (Nucleic Acid [6]) | Activity (Nucleic Acid [7]) | Activity (Nucleic Acid [8]) | Activity (Nucleic Acid [9]) | Tm (Nucleic Acid [10]) [°C] | Kd (Nucleic Acid [11]) [nM] | Activity (Nucleic Acid [12]) | T1/2 (Nucleic Acid [13]) [h] | Activity (Nucleic Acid [14]) | Activity (Nucleic Acid [15]) | Compound
1 | Active |  |  |  |  |  |  |  |  |  |  |  |  |  |  | NCCCNCCCCNCCCN1C(=O)c2ccc3c4ccc5c6c(ccc(c7ccc(c2c37)C1=O)c64)C(=O)N(CCCNCCCCNCCCN)C5=O
2 | Active | Active | Active | 36 | Active | Active | Active | inactive | inactive | 5.2 | 860 | Active | 36 | inactive | Active | NCC(CN)CCC(=O)NCCCN1C(=O)c2ccc3c4ccc5c6c(ccc(c7ccc(c2c37)C1=O)c64)C(=O)N(CCCNC(=O)CCC(CN)CN)C5=O
